The test system of series [1] is mouse Smad7 mRNA. As to the kind of experiment: Murine Smad7 mRNA expression after oral administration in BALB/c mice (Example 11). The series is classed as in vivo. Particulars: 500 mg/kg/day oral for 3 weeks, 24 hours after last dose. How it is done: The objective of this study was to evaluate the efficacy of Ionis SMAD7 antisense oligonucleotides in BALB/c mice following daily oral administration. The Ionis oligonucleotides are cross-reactive with mouse Smad7 mRNA.
Groups of BALB/c mice were orally administered 500 mg/kg/day for 3 weeks of human Smad7 oligonucleotides, ION 790615, ION 798781, or ION 830025, or mouse Smad7 oligonucleotide, ION 772797 (a 3-10-3 cEt gapmer with phosphorothioate backbone and sequence […]; designated herein as SEQ ID NO: 2743). One group of mice was orally administered PBS daily for 3 weeks. Each group contained 4 mice.
To evaluate the efficacy of the oligonucleotides, murine Smad7 mRNA expression in the liver, kidneys, duodenum, ileum, and colon was measured using primer probe set RTS1114.

In series [2] the test system is human SMAD7 mRNA. Description: Dose-dependent inhibition of human SMAD7 mRNA expression in Hep3B cells, comparison with ION 28453 (Example 4). The series is classed as cell-based. The note with it: electroporation, approximately 16 hours. The protocol: Cells were plated at a density of 20,000 cells per well and transfected using electroporation with 0.25 μM, 0.74 μM, 2.22 μM, 6.67 μM, or 20.00 μM concentrations of antisense oligonucleotide, as specified in the Tables below. After a treatment period of approximately 16 hours, RNA was isolated from the cells and SMAD7 mRNA levels were measured by quantitative real-time PCR. Primer probe set RTS5062 was used to measure human SMAD7 mRNA levels. SMAD7 mRNA levels were adjusted according to total RNA content, as measured by RIBOGREEN®. Results are presented as percent inhibition of SMAD7 mRNa expression, relative to untreated control cells.
The half maximal inhibitory concentration (IC50) of each oligonucleotide is also presented. […] Several newly designed antisense oligonucleotides had greater potency than the previously disclosed lead compound, ION 28453.

For “790615 (CCAATGAGAATGCTTC; 3-10-3 cEt gapmer, further chemistry not given here) [compound 790615]”, in series [1], the “Mouse Smad7 mRNA expression (% inhibition), Colon” value is given as 72 % inhibition; the “Mouse Smad7 mRNA expression (% inhibition), Duodenum” value was determined as 54 % inhibition; the “Mouse Smad7 mRNA expression (% inhibition), Ileum” value is recorded as 0 % inhibition; the “Mouse Smad7 mRNA expression (% inhibition), Kidney” value came to 41 % inhibition. The “Mouse Smad7 mRNA expression (% inhibition), Liver” value in series [1] turned out to be 52 % inhibition.
Take “798781 (CGTAAGATTCACAGCA; 3-10-3 cEt gapmer, further chemistry not given here) [compound 798781]”: in series [1], the “Mouse Smad7 mRNA expression (% inhibition), Colon” value came out at 0 % inhibition; the “Mouse Smad7 mRNA expression (% inhibition), Duodenum” value is on record as 47 % inhibition; the “Mouse Smad7 mRNA expression (% inhibition), Ileum” value turned out to be 0 % inhibition; the “Mouse Smad7 mRNA expression (% inhibition), Kidney” value came to 12 % inhibition. The “Mouse Smad7 mRNA expression (% inhibition), Liver” value in series [1] is 0 % inhibition. Also, in series [2] (0.25 μM), the “% inhibition of SMAD7 mRNA expression” value came to 12%. Further, the “% inhibition of SMAD7 mRNA expression” value in series [2] (0.74 μM) amounted to 38%. For the same substance, in series [2] (2.22 μM), the “% inhibition of SMAD7 mRNA expression” value amounted to 66%. Further, in series [2] (6.67 μM), the “% inhibition of SMAD7 mRNA expression” value amounted to 66%. The “% inhibition of SMAD7 mRNA expression” value in series [2] (20.00 μM) stood at 87%. This substance returned an IC50 in series [2] (SMAD7 mRNA) of 2 µM.
With “830025 (antisense TTTGTAAATCGAAAGC; 3-10-3 cEt gapmer, further chemistry not given here) [compound 830025]”, in series [1], the “Mouse Smad7 mRNA expression (% inhibition), Colon” value was determined as 39 % inhibition; the “Mouse Smad7 mRNA expression (% inhibition), Duodenum” value is listed as 51 % inhibition; the “Mouse Smad7 mRNA expression (% inhibition), Ileum” value came out at 0 % inhibition; the “Mouse Smad7 mRNA expression (% inhibition), Kidney” value is given as 31 % inhibition. The “Mouse Smad7 mRNA expression (% inhibition), Liver” value in series [1] is on record as 25 % inhibition.

(Values after patent US10517889B2, “Modulators of SMAD7 expression” (Ionis Pharmaceuticals, Inc., priority 2017, dated 2019).)
